Laboratory results reported in US9278922B2 (ABBVIE INC., priority 2009, dated 2016).

System: HCV 1b-Con-1 replicon
Assay: HCV 1b-Con-1 replicon assay (luciferase reporter gene, HuH-7 cells)
Type: cell-based, Hepatitis C virus (HCV) genotype 1b-Con1
Settings: Hepatitis C virus, Huh-7, luciferase reporter gene activity in the replicon, in the presence of 5% FBS

Structure (SMILES) | EC50
COC(=O)N[C@H](C(=O)N1CCC[C@H]1C(=O)Nc1cccc(CN(Cc2cccc(NC(=O)[C@@H]3CCCN3C(=O)[C@@H](NC(=O)OC)C(C)(C)C)c2)c2ccc(F)cc2)c1)C(C)(C)C [Example 143, dimethyl ([(4-fluorophenyl)imino]bis{methanediylbenzene-3,1-diylcarbamoyl(2S)pyrrolidine-2,1-diyl[(2S)-3,3-dimethyl-1-oxobutane-1,2-diyl]})biscarbamate] | < 1 nM
COC(=O)N[C@@H](C(=O)N1CCC[C@H]1C(=O)Nc1ccc(CN(Cc2ccc(NC(=O)[C@@H]3CCCN3C(=O)[C@H](NC(=O)OC)c3ccccc3)cc2)c2ccccc2)cc1)c1ccccc1 [Example 3] | < 1 nM
CCC(CC)[C@H](NC(=O)OC)C(=O)N1CCC[C@H]1C(=O)Nc1ccc(CN(Cc2ccc(NC(=O)[C@@H]3CCCN3C(=O)[C@@H](NC(=O)OC)C(CC)CC)cc2)c2ccc(F)cc2)cc1 [Example 135] | 1 to 10 nM
O=C(Nc1ccc(CN(Cc2ccc(NC(=O)[C@@H]3CCCN3C(=O)C(c3ccccc3)C3CCCC3)cc2)c2ccc(F)cc2)cc1)[C@@H]1CCCN1C(=O)C(c1ccccc1)C1CCCC1 (stereo partly drawn) [Example 107, (2S,2′S)-N,N′-{[(4-fluorophenyl)imino]bis(methanediylbenzene-4,1-diyl)}bis{1-[cyclopentyl(phenyl)acetyl]pyrrolidine-2-carboxamide}] | 10 to 100 nM
COC(=O)N[C@H](C(=O)N1CCC[C@H]1C(=O)Nc1ccc(CN(Cc2ccc(NC(=O)[C@@H]3CCCN3C(=O)[C@@H](NC(=O)OC)C(C)(C)C)cc2)c2ccc(F)cc2)cc1)C(C)(C)C [Example 13, Dimethyl (2S,2′S)-1,1′-((2S,2′S)-2,2′-(4,4′-(4-fluorophenylazanediyl)bis(methylene)bis(4,1-phenylene)bis(azanediyl))bis(oxomethylene)bis(pyrrolidine-2,1-diyl))bis(3,3-dimethyl-1-oxobutane-2,1-diyl)dicarbamate] | < 1 nM
COC(=O)N[C@H](C(=O)N1C[C@H](F)C[C@H]1C(=O)Nc1ccc(CN(Cc2ccc(NC(=O)[C@@H]3C[C@@H](F)CN3C(=O)[C@@H](NC(=O)OC)C(C)(C)C)cc2)c2ccc(F)cc2)cc1)C(C)(C)C [Example 103] | < 1 nM
CN(C)[C@@H](C(=O)N1CCC[C@H]1C(=O)Nc1ccc(CN(Cc2ccc(NC(=O)[C@@H]3CCCN3C(=O)[C@@H](c3ccccc3)N(C)C)cc2)c2ccccc2)cc1)c1ccccc1 [Example 2] | < 1 nM
COC(=O)N[C@H](C(=O)N1CCC[C@H]1C(=O)Nc1ccc(CN(Cc2ccc(NC(=O)[C@@H]3CCCN3C(=O)[C@@H](NC(=O)OC)C(C)(C)C)cc2)C(C)C)cc1)C(C)(C)C [Example 30, dimethyl ([(1-methylethyl)imino]bis{methanediylbenzene-4,1-diylcarbamoyl(2S)pyrrolidine-2,1-diyl[(2S)-3,3-dimethyl-1-oxobutane-1,2-diyl]})biscarbamate] | 100 to 250 nM
COC(=O)N[C@@H](CO)C(=O)N1CCC[C@H]1C(=O)Nc1ccc(CN(Cc2ccc(NC(=O)[C@@H]3CCCN3C(=O)[C@H](CO)NC(=O)OC)cc2)c2ccccc2)cc1 [Example 26, dimethyl[(phenylimino)bis{methanediylbenzene-4,1-diylcarbamoyl(2S)pyrrolidine-2,1-diyl[(2S)-3-hydroxy-1-oxopropane-1,2-diyl]}]biscarbamate] | 10 to 100 nM
COC(=O)N[C@H](C(=O)N1CCC[C@H]1C(=O)Nc1ccc(CN(Cc2ccc(NC(=O)[C@@H]3CCCN3C(=O)[C@@H](NC(=O)OC)C(C)C)cc2)c2ccc(F)cc2)cc1)C(C)C [Example 14] | < 1 nM
O=C(Nc1ccc(CN(Cc2ccc(NC(=O)[C@@H]3C[C@H](O)CN3C(=O)[C@@H](c3ccccc3)N3CCCCC3)cc2)c2ccc(F)cc2)cc1)[C@@H]1C[C@H](O)CN1C(=O)[C@@H](c1ccccc1)N1CCCCC1 [Example 127, (2S,4S,2′S,4′S)-N,N′-{[(4-fluorophenyl)imino]bis(methanediylbenzene-4,1-diyl)}bis{4-hydroxy-1-[(2R)-2-phenyl-2-piperidin-1-ylacetyl]pyrrolidine-2-carboxamide}] | < 1 nM
COC(=O)N[C@H](C(=O)N1CCC[C@H]1c1nc2ccc(CN(Cc3ccc4nc([C@@H]5CCCN5C(=O)[C@@H](NC(=O)OC)[C@@H](C)O)[nH]c4c3)c3ccccc3)cc2[nH]1)[C@@H](C)O [Example 35, methyl [(1S,2R)-2-hydroxy-1-{[(2S)-2-(6-{[({2-[(2S)-1-{(2S,3R)-3-hydroxy-2-[(methoxycarbonyl)amino]butanoyl}pyrrolidin-2-yl]-1H-benzimidazol-6-yl}methyl)(phenyl)amino]methyl}-1H-benzimidazol-2-yl)pyrrolidin-1-yl]carbonyl}propyl]carbamate] | < 1 nM
CCC[C@H](NC(=O)OC)C(=O)N1CCC[C@H]1C(=O)Nc1ccc(CN(Cc2ccc(NC(=O)[C@@H]3CCCN3C(=O)[C@H](CCC)NC(=O)OC)cc2)c2ccccc2)cc1 [Example 46, dimethyl [(phenylimino)bis{methanediylbenzene-4,1-diylcarbamoyl(2S)pyrrolidine-2,1-diyl[(2S)-1-oxopentane-1,2-diyl]}]biscarbamate] | 1 to 10 nM
COC(=O)N[C@@H](Cc1ccccc1)C(=O)N1CCC[C@H]1C(=O)Nc1ccc(CN(Cc2ccc(NC(=O)[C@@H]3CCCN3C(=O)[C@H](Cc3ccccc3)NC(=O)OC)cc2)c2ccccc2)cc1 [Example 61, dimethyl [(phenylimino)bis{methanediylbenzene-4,1-diylcarbamoyl(2S)pyrrolidine-2,1-diyl[(2S)-1-oxo-3-phenylpropane-1,2-diyl]}]biscarbamate] | 1 to 10 nM
O=C(Nc1ccc(CN(Cc2ccc(NC(=O)[C@@H]3CCCN3C(=O)C(c3ccccc3)N3CC[C@@H](F)C3)cc2)c2ccc(F)cc2)cc1)[C@@H]1CCCN1C(=O)C(c1ccccc1)N1CC[C@@H](F)C1 (single isomer, unassigned) [Example 118] | 1 to 10 nM
COC(=O)N[C@H](C(=O)N1CCC[C@H]1C(=O)Nc1ccc(CN(Cc2ccc(NC(=O)[C@@H]3CCCN3C(=O)[C@@H](NC(=O)OC)C(C)(C)OC)cc2)c2ccccc2)cc1)C(C)(C)OC [Example 52, dimethyl [(phenylimino)bis{methanediylbenzene-4,1-diylcarbamoyl(2S)pyrrolidine-2,1-diyl[(2S)-3-methoxy-3-methyl-1-oxobutane-1,2-diyl]}]biscarbamate] | 1 to 10 nM
CC(C)[C@@H](C(=O)N1CCC[C@H]1C(=O)Nc1ccc(CN(Cc2ccc(NC(=O)[C@@H]3CCCN3C(=O)[C@H](C(C)C)N3CCCC3=O)cc2)c2ccccc2)cc1)N1CCCC1=O [Example 42, (2S,2′S)-N,N′-[(phenylimino)bis(methanediylbenzene-4,1-diyl)]bis {1-[(2S)-3-methyl-2-(2-oxopyrrolidin-1-yl)butanoyl]pyrrolidine-2-carboxamide}] | < 1 nM
CCN(CC)[C@@H](C(=O)N1CCC[C@H]1C(=O)Nc1ccc(CN(Cc2ccc(NC(=O)[C@@H]3CCCN3C(=O)[C@@H](c3ccccc3)N(CC)CC)cc2)c2ccccc2)cc1)c1ccccc1 [Example 21, (R,2S,2′S)-N,N′-(4,4′-(phenylazanediyl)bis(methylene)bis(4,1-phenylene))bis(1-((R)-2-(diethylamino)-2-phenylacetyl)pyrrolidine-2-carboxamide)] | < 1 nM
COC(=O)N[C@H](C(=O)N1CCC[C@H]1C(=O)Nc1ccc(CN(Cc2ccc(NC(=O)[C@@H]3CCCN3C(=O)[C@@H](NC(=O)OC)[C@H]3CCOC3)cc2)c2ccccc2)cc1)[C@H]1CCOC1 [Example 39, dimethyl {(phenylimino)bis[methanediylbenzene-4,1-diylcarbamoyl(2S)pyrrolidine-2,1-diyl{(1S)-2-oxo-1-[(3R)-tetrahydrofuran-3-yl]ethane-2,1-diyl}]}biscarbamate] | < 1 nM
COC(=O)N[C@H](C(=O)N1CSC(C)(C)[C@H]1C(=O)Nc1ccc(CN(Cc2ccc(NC(=O)[C@H]3N(C(=O)[C@@H](NC(=O)OC)C(C)(C)C)CSC3(C)C)cc2)c2ccccc2)cc1)C(C)(C)C [Example 93, methyl [(1S)-1-{[(4R)-4-{[4-({[4-({[(4R)-3-{(2S)-2-[(methoxycarbonyl)amino]-3,3-dimethylbutanoyl}-5,5-dimethyl-1,3-thiazolidin-4-yl]carbonyl}amino)benzyl](phenyl)amino}methyl)phenyl]carbamoyl}-5,5-dimethyl-1,3-thiazolidin-3-yl]carbonyl}-2,2-dimethylpropyl]carbamate] | 1 to 10 nM
CC[C@H](NC(=O)OC)C(=O)N1CCC[C@H]1C(=O)Nc1ccc(CN(Cc2ccc(NC(=O)[C@@H]3CCCN3C(=O)[C@H](CC)NC(=O)OC)cc2)c2ccccc2)cc1 [Example 38, dimethyl [(phenylimino)bis{methanediylbenzene-4,1-diylcarbamoyl(2S)pyrrolidine-2,1-diyl[(2S)-1-oxobutane-1,2-diyl]}]biscarbamate] | 1 to 10 nM
O=C(Nc1ccc(CN(Cc2ccc(NC(=O)[C@@H]3CCCN3C(=O)C(c3ccccc3)N3CCCC3=O)cc2)c2ccc(F)cc2)cc1)[C@@H]1CCCN1C(=O)C(c1ccccc1)N1CCCC1=O (single isomer, unassigned) [Example 129, (2S ,2′S)-N,N′-{[(4-fluorophenyl)imino]bis(methanediylbenzene-4,1-diyl)}bis{1-[(2-oxopyrrolidin-1-yl)(phenyl)acetyl]pyrrolidine-2-carboxamide}] | 1 to 10 nM
COC(=O)N[C@H](C(=O)N1CCC[C@H]1C(=O)Nc1ccc(CN(Cc2ccc(NC(=O)[C@@H]3CCCN3C(=O)[C@@H](NC(=O)OC)[C@@H](C)OC)cc2)c2ccccc2)cc1)[C@@H](C)OC [Example 51, dimethyl[(phenylimino)bis{methanediylbenzene-4,1-diylcarbamoyl(2S)pyrrolidine-2,1-diyl[(2S,3R)-3-methoxy-1-oxobutane-1,2-diyl]}]biscarbamate] | 1 to 10 nM
COC(=O)N[C@H](C(=O)N1CCC[C@H]1c1nc2ccc(CN(Cc3ccc4nc([C@@H]5CCCN5C(=O)[C@@H](NC(=O)OC)C(C)(C)O)[nH]c4c3)c3ccccc3)cc2[nH]1)C(C)(C)O [Example 34, methyl [(1S)-2-hydroxy-1-{[(2S)-2-(6-{[({2-[(2S)-1-{(2S)-3-hydroxy-2-[(methoxycarbonyl)amino]-3-methylbutanoyl}pyrrolidin-2-yl]-1H-benzimidazol-6-yl}methyl)(phenyl)amino]methyl}-1H-benzimidazol-2-yl)pyrrolidin-1-yl]carbonyl}-2-methylpropyl]carbamate] | < 1 nM
